Legend:
[1] = PK test of Compound A, single oral administration, plasma concentration; format: in vivo, female mice (BALB/cAJcl); settings: from 10 mg/kg up to 80 mg/kg
Protocol: Non-fasting female mice (BALB/cAJcl) were given a single oral administration of the test compound (10 mg/kg, 40 mg/kg, 80 mg/kg and 160 mg/kg in terms of Compound A).
V1/F, K01, K10, K12 and K21, pharmacokinetic parameters of the two-compartment model, were calculated from the plasma concentration course of Compound A when Compound A was given as a single oral administration. These parameters were used to predict the plasma concentration course of Compound A upon repeated administration in a variety of dosage regimen. […] The parameter of 160 mg/kg was used to carry out the prediction for 120 mg/kg and 240 mg/kg. […] PK parameters (Cmax, Time above IC50 and AUC0-48) were plotted on the X axis, and the inhibition rate of tumor volume was plotted on the Y axis.

[2] = system: XMP in blood cells of healthy human; experiment: XMP in blood cells of healthy human (hemolysis, Example 4); format: cell-based; settings: 37° C., 8 hours, non-treated = 100%
Protocol: (§1) A ¾ hydrate of Compound A was used as a test compound.
450 μL of the blood collected from two healthy individuals by heparinized blood collection (Analyte A and Analyte B) was added to each of 1.5 mL tubes, and 50 μL of a PBS solution of the test compound (0 μg/mL, 10 μg/mL, 30 μg/mL, 100 μg/mL, 300 μg/mL, or 1000 μg/mL in terms of Compound A) for each concentration was added to each tube. The reaction mixture was stirred in an incubator at 37° C. for 8 hours. Then, BD Pharm Lyse (555899, manufactured by Becton, Dickinson and Company, Inc.) was added to the blood (2 mL of BD Pharm Lyse was added relative to 0.2 mL of blood). After stirring with a vortex mixer, the reaction solution was protected from light and allowed to stand at room temperature for 15 min. After centrifugation at 20° C. and 1000×g for 5 min, the supernatant was removed and suspended in 10 mL of a PBS solution. After centrifugation at 4° C. and 1000×g for 5 min, the supernatant was removed, and 1000 μL of methanol was added to each tube, followed by stirring. Thereafter, 500 μL of ultrapure water was added thereto, followed by further stirring. 600 μL of the reaction solution was divided into each of two tubes, and 400 μL of chloroform was added to each tube. The reaction solution was stirred and then centrifuged at 4° C. and 10000×g for 15 min. 400 μL of the aqueous phase was recovered and added to an ultrafiltration tube, followed by centrifugation at 12° C. and 9200×g for 2 hours. The filtrates were combined and then dried under reduced pressure at 40° C. for 2 hours by using a centrifugal evaporator. After drying, the resulting product was stored in a freezer at −80° C.
The samples stored in (1) and (2) were returned to room temperature and 40 μL of ultrapure water was added to each sample. The mixture was stirred and centrifuged at 4° C. and 21500×g for 5 min. 35 μL of the supernatant was transferred to a vial. After storage at 4° C., XMP in samples was determined in the LC-MS/MS determination instrument, LC conditions and MS/MS conditions described in Example 3 (3).
Amounts of XMP (%) were calculated assuming that the XMP value of a non-Compound A treated group (peak area value) is defined as 100%.

GMP in whole blood = GMP in whole blood (Example 8); format: cell-based, human; settings: 37° C., 8 hours, non-treated = 100%
Protocol: as §1
(§2) 450 μL of the blood collected from healthy individuals by heparinized blood collection was added to each tube, and 50 μL of a PBS solution of the test compound (0 μg/mL, 1 μg/mL, 10 μg/mL, or 100 μg/mL in terms of Compound A) for each concentration was added to each tube. The reaction mixture was stirred in an incubator at 37° C. for 8 hours.
(§3) 400 μL of methanol was added to 100 μL of the blood sample obtained in (1). After stirring, 400 μL of chloroform was added, followed by further stirring. 120 μL of ultrapure water was added thereto, followed by stirring and then centrifugation at 4° C. and 10000×g for 15 min. 400 μL of the aqueous phase was recovered and added to an ultrafiltration tube, followed by centrifugation at 12° C. and 9200×g for 2 hours. The filtrate was dried under reduced pressure at 40° C. for 2 hours by using a centrifugal evaporator. After drying, the resulting product was stored in a freezer at −80° C.
(§4) The samples obtained in (2) were returned to room temperature and 40 μL of ultrapure water was added to each sample. The mixture was stirred and centrifuged at 4° C. and 21500×g for 5 min. 35 μL of the supernatant was transferred to a vial. After storage at 4° C., XMP, GMP and GTP in the samples were determined in the LC-MS/MS determination instrument and LC conditions described in Example 3 (3), and MS/MS conditions shown in Table 15.
(§5) Amounts of XMP, GMP and GTP (%) were calculated assuming that the XMP, GMP and GTP values of a non-Compound A treated group (peak area value) are defined as 100%.

GTP in whole blood = GTP in whole blood (Example 8); format: cell-based, human; settings: 37° C., 8 hours, non-treated = 100%
Protocol: as §1, §2, §3, §4, §5

Structure (SMILES): NC(=O)c1nc[nH]c1O [Compound A, 5-Hydroxy-1H-imidazole-4-carboxamide]
- linearity of plasma pharmacokinetics [1]: linearity was recognized
- Amount of XMP (%) Analyte A ([2]; Compound A 1 μg/mL): 60%
- Amount of XMP (%) Analyte B ([2]; Compound A 1 μg/mL): 51%
- Amount of XMP (%) Analyte A ([2]; Compound A 3 μg/mL): 45%
- Amount of XMP (%) Analyte B ([2]; Compound A 3 μg/mL): 37%
- Amount of XMP (%) Analyte A ([2]; Compound A 10 μg/mL): 37%
- Amount of XMP (%) Analyte B ([2]; Compound A 10 μg/mL): 25%
- Amount of XMP (%) Analyte A ([2]; Compound A 30 μg/mL): 27%
- Amount of XMP (%) Analyte B ([2]; Compound A 30 μg/mL): 18%
- Amount of XMP (%) Analyte A ([2]; Compound A 100 μg/mL): 16%
- Amount of XMP (%) Analyte B ([2]; Compound A 100 μg/mL): 10%
- Amount of each compound in whole blood (%) GMP (GMP in whole blood; Compound A 1 μg/mL): 85%
- Amount of each compound in whole blood (%) GMP (GMP in whole blood; Compound A 10 μg/mL): 85%
- Amount of each compound in whole blood (%) GMP (GMP in whole blood; Compound A 100 μg/mL): 91%
- Amount of each compound in whole blood (%) GTP (GTP in whole blood; Compound A 1 μg/mL): 89%
- Amount of each compound in whole blood (%) GTP (GTP in whole blood; Compound A 10 μg/mL): 86%
- Amount of each compound in whole blood (%) GTP (GTP in whole blood; Compound A 100 μg/mL): 79%

— US20160320368A1, “METHOD AND APPARATUS FOR PREDICTING EFFECTIVE DOSE OR SENSITIVITY OF 5-HYDROXY-1H-IMIDAZOLE-4-CARBOXAMIDE, METHOD FOR DETERMINING AMOUNT OF XANTHOSINE MONOPHOSPHATE, AND TREATMENT AGENT AND METHOD FOR TREATING MYELODYSPLASTIC SYNDROME” (FUJIFILM Corporation, priority 2014, published 2016)
